# Data: paper PMC4584933, “Establishing the pig as a large animal model for vaccine development against human cancer” (Frontiers in Genetics, 2015)
# Tests used:
# PBMCs = assay: In vitro peptide stimulation of porcine PBMCs, IFN-γ release assay (ELISA); type: cell-based, pig; set-up: key to T cell response: “x” indicates that a response was found to this given peptide at least once; details: PBMCs of immunized pigs, 2 × 10^5/well, 5 μg/ml peptide, 67.5–70.0 h, IFN-γ ELISA; response = 2-fold increase vs day -2 and at least 25 pg/ml IFN-γ, found at least once; SLA restriction not included
# SLA-1*07:02 = assay: Peptide-MHC class I complex stability, scintillation proximity assay (SPA); set-up: species or system pig; details: biotinylated recombinant SLA heavy chain, 125I-β2m, excess unlabeled β2m, read every 40 min, number only if t1/2 ≥ 0.5 h, '-' = not stably binding
# In short: (§1)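 Biotinylated recombinant heavy chains captured on streptavidin scintillation plates with 125I-β2m and peptide; signal read every 40 min under dissociating conditions with excess unlabeled β2m. Signal duration gives complex half-life; ≥ 0.5 h counted as stable binder.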
# SLA-1*04:01 = assay: as above; set-up: species or system pig; details: biotinylated recombinant SLA heavy chain, 125I-β2m, excess unlabeled β2m, read every 40 min, number only if t1/2 ≥ 0.5 h, '-' = not stably binding
# In short: as §1
# SLA-2*04:01 = assay: as above; set-up: species or system pig; details: biotinylated recombinant SLA heavy chain, 125I-β2m, excess unlabeled β2m, read every 40 min, number only if t1/2 ≥ 0.5 h, '-' = not stably binding
# In short: as §1
# SLA-2*05:02 = assay: as above; set-up: species or system pig; details: biotinylated recombinant SLA heavy chain, 125I-β2m, excess unlabeled β2m, read every 40 min, number only if t1/2 ≥ 0.5 h, '-' = not stably binding
# In short: as §1
# SLA-3*04:01 = assay: as above; set-up: species or system pig; details: biotinylated recombinant SLA heavy chain, 125I-β2m, excess unlabeled β2m, read every 40 min, number only if t1/2 ≥ 0.5 h, '-' = not stably binding
# In short: as §1
Sequence,T cell response (PBMCs),Binder (t1/2 ≥ 0.5 h): half-life of peptide-SLA-1*07:02 complex (SLA-1*07:02),Binder (t1/2 ≥ 0.5 h): half-life of peptide-SLA-1*04:01 complex (SLA-1*04:01),Binder (t1/2 ≥ 0.5 h): half-life of peptide-SLA-2*04:01 complex (SLA-2*04:01),Binder (t1/2 ≥ 0.5 h): half-life of peptide-SLA-2*05:02 complex (SLA-2*05:02),Binder (t1/2 ≥ 0.5 h): half-life of peptide-SLA-3*04:01 complex (SLA-3*04:01)
"ALWDTAGQEDY [RhoC1, porcine RhoC-derived 9-11mer peptide]",x,54 min,234 min,–,–,–
"ASAIKVIPTLF [IDO8, porcine IDO-derived 9-11mer peptide]",–,–,- (t1/2 (hours) is listed for each of the stably binding peptides (t1/2 ≥ 0.5 h)),- (t1/2 (hours) is listed for each of the stably binding peptides (t1/2 ≥ 0.5 h)),–,–
"CVQAMVSLRNY [IDO9, porcine IDO-derived 9-11mer peptide]",–,186 min,- (t1/2 (hours) is listed for each of the stably binding peptides (t1/2 ≥ 0.5 h)),–,–,–
"EDYDRLRPLSY [RhoC14, porcine RhoC-derived 9-11mer peptide]",–,–,- (t1/2 (hours) is listed for each of the stably binding peptides (t1/2 ≥ 0.5 h)),- (t1/2 (hours) is listed for each of the stably binding peptides (t1/2 ≥ 0.5 h)),–,–
"EIAAASAIKVI [IDO16, porcine IDO-derived 9-11mer peptide]",x,–,48 min,–,750 min,–
"GSAAQSSIF [IDO33, porcine IDO-derived 9-11mer peptide]",–,–,- (t1/2 (hours) is listed for each of the stably binding peptides (t1/2 ≥ 0.5 h)),- (t1/2 (hours) is listed for each of the stably binding peptides (t1/2 ≥ 0.5 h)),–,–
"KGDALLQETY [IDO48, porcine IDO-derived 9-11mer peptide]",x,–,42 min,- (t1/2 (hours) is listed for each of the stably binding peptides (t1/2 ≥ 0.5 h)),–,–
"LLDITSSLH [IDO67, porcine IDO-derived 9-11mer peptide]",x,–,42 min,–,–,–
"MANRISAFGY [RhoC39, porcine RhoC-derived 9-11mer peptide]",x,90 min,42 min,84 min,–,–
"NMDILFSFP [IDO85, porcine IDO-derived 9-11mer peptide]",x,–,48 min,–,–,–
"PMDNSWKIF [IDO96, porcine IDO-derived 9-11mer peptide]",–,–,42 min,–,–,–
"RDMANRISAF [RhoC42, porcine RhoC-derived 9-11mer peptide]",–,–,- (t1/2 (hours) is listed for each of the stably binding peptides (t1/2 ≥ 0.5 h)),- (t1/2 (hours) is listed for each of the stably binding peptides (t1/2 ≥ 0.5 h)),–,- (t1/2 (hours) is listed for each of the stably binding peptides (t1/2 ≥ 0.5 h))
"RGTGGTNVIDF [IDO103, porcine IDO-derived 9-11mer peptide]",–,–,- (t1/2 (hours) is listed for each of the stably binding peptides (t1/2 ≥ 0.5 h)),–,–,–
"RISAFGYLE [RhoC43, porcine RhoC-derived 9-11mer peptide]",–,–,- (t1/2 (hours) is listed for each of the stably binding peptides (t1/2 ≥ 0.5 h)),–,–,–
"RLAHLVLGY [IDO104, porcine IDO-derived 9-11mer peptide]",–,30 min,- (t1/2 (hours) is listed for each of the stably binding peptides (t1/2 ≥ 0.5 h)),- (t1/2 (hours) is listed for each of the stably binding peptides (t1/2 ≥ 0.5 h)),–,–
"RTYMPPAHRNF [IDO113, porcine IDO-derived 9-11mer peptide]",–,–,60 min,- (t1/2 (hours) is listed for each of the stably binding peptides (t1/2 ≥ 0.5 h)),- (t1/2 (hours) is listed for each of the stably binding peptides (t1/2 ≥ 0.5 h)),- (t1/2 (hours) is listed for each of the stably binding peptides (t1/2 ≥ 0.5 h))

Sequence,T cell response (PBMCs),Binder (t1/2 ≥ 0.5 h): half-life of peptide-SLA-1*07:02 complex (SLA-1*07:02),Binder (t1/2 ≥ 0.5 h): half-life of peptide-SLA-1*04:01 complex (SLA-1*04:01),Binder (t1/2 ≥ 0.5 h): half-life of peptide-SLA-2*04:01 complex (SLA-2*04:01),Binder (t1/2 ≥ 0.5 h): half-life of peptide-SLA-2*05:02 complex (SLA-2*05:02),Binder (t1/2 ≥ 0.5 h): half-life of peptide-SLA-3*04:01 complex (SLA-3*04:01)
"SAAQSSIFQCF [IDO122, porcine IDO-derived 9-11mer peptide]",x,–,1810 min,- (t1/2 (hours) is listed for each of the stably binding peptides (t1/2 ≥ 0.5 h)),–,–
"SIDGLQGHKM [IDO115, porcine IDO-derived 9-11mer peptide]",–,–,- (t1/2 (hours) is listed for each of the stably binding peptides (t1/2 ≥ 0.5 h)),–,–,–
"SIDSPDSLENI [RhoC47, porcine RhoC-derived 9-11mer peptide]",–,–,- (t1/2 (hours) is listed for each of the stably binding peptides (t1/2 ≥ 0.5 h)),–,–,–
"SKDQFPEVY [RhoC48, porcine RhoC-derived 9-11mer peptide]",–,–,- (t1/2 (hours) is listed for each of the stably binding peptides (t1/2 ≥ 0.5 h)),- (t1/2 (hours) is listed for each of the stably binding peptides (t1/2 ≥ 0.5 h)),–,–
"SLENIPEKW [RhoC49, porcine RhoC-derived 9-11mer peptide]",–,–,- (t1/2 (hours) is listed for each of the stably binding peptides (t1/2 ≥ 0.5 h)),- (t1/2 (hours) is listed for each of the stably binding peptides (t1/2 ≥ 0.5 h)),–,–
"SLENIPEKWTP [RhoC50, porcine RhoC-derived 9-11mer peptide]",–,–,- (t1/2 (hours) is listed for each of the stably binding peptides (t1/2 ≥ 0.5 h)),–,–,–
"SLESGPSVREF [IDO116, porcine IDO-derived 9-11mer peptide]",x,–,48 min,–,–,–
"SLHKALEVF [IDO117, porcine IDO-derived 9-11mer peptide]",–,- (t1/2 (hours) is listed for each of the stably binding peptides (t1/2 ≥ 0.5 h)),- (t1/2 (hours) is listed for each of the stably binding peptides (t1/2 ≥ 0.5 h)),–,–,–
"TSSLHKALEVF [IDO123, porcine IDO-derived 9-11mer peptide]",–,–,- (t1/2 (hours) is listed for each of the stably binding peptides (t1/2 ≥ 0.5 h)),- (t1/2 (hours) is listed for each of the stably binding peptides (t1/2 ≥ 0.5 h)),–,–
"VLGYITMAY [IDO125, porcine IDO-derived 9-11mer peptide]",–,60 min,- (t1/2 (hours) is listed for each of the stably binding peptides (t1/2 ≥ 0.5 h)),48 min,–,–
"VLPRNIAIPY [IDO126, porcine IDO-derived 9-11mer peptide]",x,42 min,- (t1/2 (hours) is listed for each of the stably binding peptides (t1/2 ≥ 0.5 h)),–,–,–
"VQAMVSLRNY [IDO129, porcine IDO-derived 9-11mer peptide]",x,–,72 min,- (t1/2 (hours) is listed for each of the stably binding peptides (t1/2 ≥ 0.5 h)),–,–
"YADCVLANW [IDO133, porcine IDO-derived 9-11mer peptide]",x,–,324 min,102 min,–,–
"YPDTDVILMCF [RhoC59, porcine RhoC-derived 9-11mer peptide]",–,48 min,60 min,–,–,–
"YVDPKLFFNV [IDO135, porcine IDO-derived 9-11mer peptide]",–,–,- (t1/2 (hours) is listed for each of the stably binding peptides (t1/2 ≥ 0.5 h)),–,–,–
"YVDPKLFFNVL [IDO136, porcine IDO-derived 9-11mer peptide]",–,–,- (t1/2 (hours) is listed for each of the stably binding peptides (t1/2 ≥ 0.5 h)),–,–,–
